Data reported in patent US20140121233A1, “Synthesis and Characterization of Second Generation Benzofuranone Ring Substituted Noscapine Analogs” (GEORGIA STATE UNIVERSITY RESEARCH FOUNDATION, INC., priority 2011, published 2014).
Like-named read-outs stand apart in the source and are kept apart here.

Experiments:
A549 (lung) cancer cells = test: MTT cytotoxicity assay, A549; assay type: cell-based
Description: (§1) CEM (lymphoma), A549 (lung), PC-3 (prostate), MIA PaCa-2 (pancreatic), MCF-7 and MDA-MB-231 (breast) cancer cells were purchased from ATCC. PC3, A549, MDA-MB-231 and CEM were cultured in RPMI-1640 medium supplemented with 10% Fetal Bovine Serum (FBS) and 1% penicillin/streptomycin. MIA PaCa-2 and MCF-7 cells were cultured in DMEM supplemented with 10% FBS and 1% penicillin/streptomycin. Primary human dermal fibroblasts (HDF) from the dermis of normal human neonatal foreskin were obtained from the Dermatology Department, Emory University. MTT dye (Thiazolyl Blue Tetrazolium Bromide) dimethyl sulfoxide (DMSO), propidium iodide and RNase were purchased from Sigma (St. Louis, Mo.). Cells were cultured at 37° C. with 5% CO2.
(§2) MTT (3-(4,5-dimethylthiazol-2-yl)-2,5-diphenyltetrazolium bromide) assay was employed to evaluate the proliferative capacity of cells. Essentially, MTT is a colorimetric assay, which utilizes the […] tetrazolium dye and converts it into a colored formazan salt, which can be quantified by measuring absorbance at 570 nm. Briefly, a 96-well format was used to seed […] medium containing cells at a density of 5×10^3 cellsper well. After 24 h of incubation, cells were treated with gradient concentration of the test compounds, which were dissolved in DMSO. The final concentration of DMSO in the culture medium was maintained at 0.1%. After 48 h of drug incubation, the spent medium was removed and the wells were washed twice with PBS. 100 μl of fresh medium and 10 μl of MTT (5 mg/ml in PBS) was added to the wells and cells were incubated at 37° C. in dark for 4 h. The formazan product was dissolved by adding 100 μl of 100% DMSO after removing the medium from each well. The absorbance was measured at 570 nm using a Spectra Max Plus multi-well plate reader (Molecular Devices, USA).

[1] = system: CEM (lymphoma) cancer cells; test: MTT cytotoxicity assay, CEM; assay type: cell-based; conditions: 48 h drug incubation
Description: as §1, §2

[2] = system: MCF-7 (breast) cancer cells; test: MTT cytotoxicity assay, MCF-7; assay type: cell-based
Description: as §1, §2

[3] = system: MIA PaCa-2 (pancreatic) cancer cells; test: MTT cytotoxicity assay, MIA PaCa-2; assay type: cell-based
Description: as §1, §2

[4] = system: PC-3 (prostate) cancer cells; test: MTT cytotoxicity assay, PC-3; assay type: cell-based; conditions: 48 h drug incubation
Description: as §1, §2

[5] = system: cancer cell lines (A549, CEM, MCF-7, MIA PaCa-2, PC-3); test: MTT cytotoxicity assay, several cancer cell lines together; assay type: cell-based; conditions: for antiproliferative activity, comparison in words: across cell lines of Table 3
Description: as §1, §2

MDA-MB-231 cells = test: Cell-cycle analysis by flow cytometry; assay type: cell-based; conditions: 25 μM; for G2/M population up to 24 h: 12 and 24 h
Description: Flow-cytometric evaluation of the cell-cycle status was performed as described previously. Control and drug treated cells were centrifuged, washed with ice-cold PBS, and fixed in 70% ethanol. Tubes containing the cell pellets were stored at 4° C. for at least 24 h. Cells were then centrifuged at 1000 g for 10 min and the supernatant was discarded. The pellets were washed twice with 5 ml of PBS and then stained with 0.5 ml of propidium iodide (0.1% in 0.6% Triton-X in PBS) and 0.5 ml of RNase A (2 mg/ml) for 45 min in dark. Samples were then analyzed on a BD FACSCanto II flow-cytometer (BD Biosciences, Sparks, Md.).
To gain further insights into the precise mechanisms responsible for inhibition of cellular proliferation, we next examined the effect of benzofuranone ring substituted analogs on cell cycle distribution profiles of breast cancer MDA-MB-231 cells. The effect of compounds 3-7 on mitotic index (percent G2/M cells) and apoptotic index (percent sub-G1 cells) as a function of time in MDA-MB-231 cells was studied using fluorescence activated cell sorting (FACS) analysis. All 5 compounds were used at 25 μM concentration over 48 h of treatment.
Although staining of DNA with propidium iodide is extremely useful to determine the percent cell population in various cell-cycle phases, it has its limitations. For example, it cannot dissect out the differences between G2 and M phases as both have 4N DNA amounts. Thus, to explore further, a mitosis specific marker, MPM-2, was used to distinctly identify which phase the cells were in.

[6] = Homo sapiens, A549, 48 h drug incubation
[7] = Homo sapiens, MCF7, 48 h drug incubation
[8] = Homo sapiens, MIA PaCa-2, 48 h drug incubation

Row | melting point [°C] | SMILES | IC50 (A549 (lung) cancer cells; 48 h drug incubation) [µM] | IC50 [1] [µM] | IC50 ([2]; 48 h drug incubation) [µM] | IC50 ([3]; 48 h drug incubation) [µM] | IC50 [4] [µM] | IC50 ([5]; lung, pancreatic and prostate, read-out: IC50 values, lung, pancreatic and prostate cancer cells) [µM] | IC50 (A549 (lung) cancer cells; [6]) [µM] | IC50 [2, 7] [µM] | IC50 [3, 8] [µM] | antiproliferative activity, comparison in words [5] | IC50 ([5]; majority of the cell lines, read-out: IC50 values, majority of the cell lines) [µM] | G2/M population up to 24 h (MDA-MB-231 cells) | G2/M population at 48 h (MDA-MB-231 cells; 48 h) | apoptotic index (sub-G1) (MDA-MB-231 cells; 48 h) | duration of G2 arrest (MDA-MB-231 cells; MPM-2 marker) | IC50 ([5]; lung, lymphoma, pancreatic and prostate, read-out: IC50 values, lung, lymphoma, pancreatic and prostate cancer cells) [µM]
1 | – | COc1ccc2c(c1OC(=O)c1ccccc1)C(=O)O[C@@H]2[C@H]1c2c(cc3c(c2OC)OCO3)CCN1C [Compound 4, (S)-5-methoxy-1-(R)-4-methoxy-6-methyl-5,6,7,8-tetrahydro-[1,3]dioxolo[4,5-g]isoquinolin-5-yl)-3-oxo-1,3-dihydroisobenzofuran-4-yl benzoate] | 4.5 | 49 | 34 | 1.7 | 4.8 | < 5 | – | – | – | – | – | – | – | – | – | –
2 | – | COc1ccc2c(c1OC(=O)NCc1ccccc1)C(=O)O[C@@H]2[C@H]1c2c(cc3c(c2OC)OCO3)CCN1C [Compound 7, (S)-5-methoxy-1-((R)-4-methoxy-6-methyl-5,6,7,8-tetrahydro-[1,3]dioxolo[4,5-g]isoquinolin-5-yl)-3-oxo-1,3-dihydroisobenzofuran-4-yl benzylcarbamate] | – | 7.1 | – | – | 49 | – | 25 | 74.1 | 24.5 | relatively lower IC50 values when compared to compound 6 | – | – | – | – | – | –
3 | – | COc1ccc2c(c1OC(=O)Nc1ccccc1)C(=O)O[C@@H]2[C@H]1c2c(cc3c(c2OC)OCO3)CCN1C [Compound 6, (S)-5-methoxy-1-0)-4-methoxy-6-methyl-5,6,7,8-tetrahydro-[1,3]dioxolo[4,5-g]isoquinolin-5-yl)-3-oxo-1,3-dihydroisobenzofuran-4-yl phenylcarbamate] | 50 | 250 | 182 | 1 | 83.2 | – | – | – | – | – | 50 to 250 | – | – | – | – | –
4 | 142 to 143 | COc1ccc2c(c1O)C(=O)O[C@@H]2[C@H]1c2c(cc3c(c2OC)OCO3)CCN1C [Compound 2, (S)-7-hydroxy-6-methoxy-3-((R)-4-methoxy-6-methyl-5,6,7,8-tetrahydro[1,3]dioxolo-[4,5-g]isoquinolin-5-yl)isobenzofuran-1(3H)-one] | – | – | – | – | – | – | – | – | – | – | – | – | – | – | – | –
5 | – | COc1ccc2c(c1OC)C(=O)O[C@@H]2[C@H]1c2c(cc3c(c2OC)OCO3)CCN1C [Noscapine] | – | 20 | – | – | 51 | – | 73 | 45 | 70 | – | – | – | – | – | – | –
6 | – | CCNC(=O)Oc1c(OC)ccc2c1C(=O)O[C@@H]2[C@H]1c2c(cc3c(c2OC)OCO3)CCN1C [Compound 5] | 5.6 | 1.7 | 49 | 49 | 6.6 | – | – | – | – | – | – | G2/M population increased considerably | mostly remained arrested in G2/M phase | lower compared to compound 3 | the arrest was maintained until 48 h | –
7 | – | COc1ccc2c(c1OC(C)=O)C(=O)O[C@@H]2[C@H]1c2c(cc3c(c2OC)OCO3)CCN1C [Compound 3, (S)-5-methoxy-1-(R)-4-methoxy-6-methyl-5,6,7,8-tetrahydro-[1,3]dioxolo[4,5-g]isoquinolin-5-yl)-3-oxo-1,3-dihydroisobenzofuran-4-yl acetate] | 3.2 | 15.5 | 166 | 1 | 9.3 | – | – | – | – | generally most-effective against most cell lines | – | G2/M population increased considerably | G2/M population decreased significantly | – | – | 1 to 15
